Experimental data reported in paper PMC12715805, “Screening apelin analogues and a small molecule agonist as effective cardiovascular therapeutics against reperfusion injury” (RSC Medicinal Chemistry, 2025).
Where a SMILES comes first, the peptide text is derived from it. [ ]: non-standard residue; d: D form. The star is where a group is joined. Phe(4-Br) = N[C@@H](Cc1ccc(Br)cc1)C(=O)O; PEG6 = NCCOCCOCCOCCOCCOCCOCCC(=O)O; NMeL = CN[C@@H](CC(C)C)C(=O)O; Nle = CCCC[C@H](N)C(=O)O; Cbz = O=C(OCc1ccccc1)*; Aib = CC(C)(N)C(=O)O

Tests used:
[1] = tested on: isolated mouse heart (ischemia–reperfusion injury); assay: Ex vivo Langendorff heart perfusion with ischemia–reperfusion
[2] = tested on: wild-type male mice (C57BL/6); assay: Blood pressure lowering assay in anesthetized mice; format: in vivo, mouse
Procedure: The metabolically stable apelin analogues from each isoform, CbzPEG6–NMeLeu17A2 and NMeLeu13A2 along with the small molecule agonist, BMS-986224 (0.5 μmol kg^−1 infusion during 5 min for each compound), were tested for their BP lowering activity in anesthetized wild-type male mice (C57BL/6, 24–30 g). […] In contrast, the hypotensive effect of CbzPEG6–NMeLeu17A2 was observed immediately after infusion. This analogue reduced mean arterial pressure (MAP) by approximately 50% during the experiment, with the effect sustained for more than 30 minutes post-administration. Apelin can act on the endothelial layer of vasculature, leading to systemic changes in blood pressure by increasing the synthesis of nitric oxide (NO).[5] The effect of CbzPEG6–NMeLeu17A2 on […], which decreases the […] resistance by increasing eNOS activation and NO production through the activation of the PI3K/Akt signalling pathway on endothelial cells like other apelin analogues we tested in the previous studies.[5,11]
The blood pressure measurement and apelin injection method has been described in our previous research.[43] During the blood pressure testing, mice aged 12–14 weeks were anesthetized with 1.5% isoflurane in oxygen and monitored throughout the experiment. The blood pressure was measured using a PV loop catheter (model 1.2F, Transonic) […] into the left carotid artery. The monitor system (LabScribe 2.0. Scisense) recorded aortic blood pressure and heart rate. After a 20-minute baseline measurement, CbzPEG6–NMeLeu17A2, NMeLeu13A2, RI13, RI13A2, RI17, RI17A2, and BMS-986224 (0.5 μmol […] body weight) were diluted in saline and consistently infused for 5 min via the right jugular vein. For BMS-986224, 0.1% DMSO was added to saline to help with dilution. Blood pressure was continuously recorded for 60 minutes post-infusion.
3. Effects of APJ agonists on blood pressure
Figure S3. Different effects of apelin analog and receptor agonist on blood pressure and ischemia-reperfusion injury. A) the effect of CbzPEG6–NMeLeu17A2 (n=3) on mean arterial blood pressure (MAP), B) the effect of apelin 13 analog, NMeLeu13A2, on MAP (n=4). The effect of apelin 13 analog reverse enantiomers, C) RI13 (n=4) and D) RI13A2 (n=4), on MAP. The effect of apelin 17 reverse enantiomers, E) RI17 (n=4) and F) RI17A2 (n=4) on MAP. G) The effect of small molecule apelin receptor agonist BMS-986224 on blood pressure (n=4). The MAP recording between 50 and 60 minutes has been averaged and compared with their controls (placebo (n=4)). The vehicle for BMS-986224 is 0.1% DMSO (n=3). The arrow indicates the time when analogs were introduced. Values mean ±SEM and ****P<0.0001, compared to the control group.
(1 picture or pasted object on this page, not shown here)

[3] = tested on: phospho-ERK1/2 (Thr202/Tyr204); assay: Western blot of ERK1/2 phosphorylation in left ventricular tissue after Langendorff ischemia–reperfusion; set-up: species or system mouse; settings: n = 6 per group
Procedure: (§1) Fig. 4 Phosphorylation of Akt and ERK1/2 in left ventricular tissue following ischemia–reperfusion (IR) and treatment with apelin analogues. Protein lysates were analyzed by Western blotting and band intensities quantified by densitometry. (A) Representative Western blots for phosphorylated Akt (p-Akt, Ser473), total Akt, phosphorylated ERK1/2 (p-ERK1/2, Thr202/Tyr204), and total ERK1/2. (B) Quantification of p-Akt/Akt. (C) Quantification of p-ERK1/2/ERK1/2. Data are expressed in arbitrary units relative to aerobic perfusion (control) and presented as mean ± SEM (n = 6 per group). Statistical analysis was performed using one-way ANOVA with Tukey's multiple comparisons test. Symbol key: *p < 0.05 vs. aerobic perfusion; **p < 0.05 vs. aerobic perfusion and placebo; ***p < 0.05 vs. all other groups.
(§2) Protein expression was assessed by Western blot analysis. Left ventricular tissue samples from mice in the Langendorff protocol were homogenized in RIPA buffer supplemented with protease and phosphatase inhibitors (Thermo Fisher Scientific, Waltham, MA, USA). Lysates were cleared by centrifugation at 12 000 × g for 15 min at 4 °C, and protein concentration was determined by the BCA assay (Pierce, Thermo Fisher Scientific, Waltham, MA, USA). Equal amounts of protein (20 μg per lane) were separated on 10% SDS-polyacrylamide gels and transferred to polyvinylidene difluoride (PVDF) membranes (Immobilon-P, MilliporeSigma, Burlington, MA, USA). Membranes were blocked for 1 h at room temperature in 5% bovine serum albumin (BSA) prepared in Tris-buffered saline with 0.1% Tween-20 (TBST) and incubated overnight at 4 °C with the following primary antibodies (all from Cell Signaling Technology, Danvers, MA, USA): phospho-Akt (Ser473; #4060), total Akt (#2920), phospho-ERK1/2 (Thr202/Tyr204; #9101), and total ERK1/2 (#4696), each diluted 1 : 1000 in blocking buffer. […] Band intensities were quantified using ImageJ software (National Institutes of Health, Bethesda, MD, USA), and phosphorylated protein levels were normalized to their corresponding total protein.

phospho-Akt (Ser473) = assay: Western blot of Akt phosphorylation in left ventricular tissue after Langendorff ischemia–reperfusion; set-up: species or system mouse; settings: n = 6 per group
Procedure: as §1, §2

[4] = cited from earlier work
From the text: The apelinergic system is a regulator in cardiovascular function and has shown positive effects on myocardial contractility, vasodilation,[4,5] angiogenesis[6] and heart rate.[7] Apelin promotes vasodilation by stimulating nitric oxide (NO) production, with apelin potentiating phosphorylation of Akt and eNOS,[5,8] while its signalling through Akt and ERK pathways also helps regulate cardiac contractility and provides protection against cardiac hypertrophy.[9] Apelin peptide hormones are derived from a 77-residue pre-propeptide and exist as three major isoforms, differentiated by their length, ...

apelinR / β-arrestin1 = biological target: T1, apelinR / β-arrestin1 (Homo sapiens, UniProt P35414); assay: ebBRET β-arrestin1 recruitment; format: cell-based; settings: HEK293 cells transfected with apelinR, β-arrestin1-RlucII, rGFP-CAAX; 10 min at 37 °C; mean ± SEM of 5 to 6 independent experiments; read-out: β-arr1 recruitment log EC50 (converted)
T1 sequence (P35414 1-380): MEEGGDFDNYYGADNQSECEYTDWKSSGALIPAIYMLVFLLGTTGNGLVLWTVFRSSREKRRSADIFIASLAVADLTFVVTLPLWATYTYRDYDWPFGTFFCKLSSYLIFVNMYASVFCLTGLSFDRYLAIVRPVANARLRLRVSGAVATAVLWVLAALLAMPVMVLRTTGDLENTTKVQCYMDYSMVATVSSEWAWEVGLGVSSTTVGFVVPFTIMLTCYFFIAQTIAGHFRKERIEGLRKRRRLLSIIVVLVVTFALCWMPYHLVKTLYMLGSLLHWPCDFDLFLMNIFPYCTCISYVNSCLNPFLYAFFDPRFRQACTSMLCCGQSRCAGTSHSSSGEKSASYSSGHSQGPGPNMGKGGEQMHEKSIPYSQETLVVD

apelinR / human Gαi2 = biological target: T2, apelinR / human Gαi2 (Homo sapiens, UniProt P35414); assay: ebBRET Gαi2 activation; format: cell-based; settings: HEK293 cells transfected with apelinR, human Gαi2, Rap1GAP-RlucII, rGFP-CAAX; 10 min at 37 °C; mean ± SEM of 5 to 6 independent experiments; read-out: Gαi2 activation log EC50 (converted)
T2 sequence (P35414 1-380): T1 sequence (P35414 1-380)

apelinR / β-arrestin2 = biological target: T3, apelinR / β-arrestin2 (Homo sapiens, UniProt P35414); assay: ebBRET β-arrestin2 recruitment; format: cell-based; settings: HEK293 cells transfected with apelinR, β-arrestin2-RlucII, rGFP-CAAX; 10 min at 37 °C; mean ± SEM of 5 to 6 independent experiments; read-out: β-arr2 recruitment log EC50 (converted)
T3 sequence (P35414 1-380): T1 sequence (P35414 1-380)

apelinR / human Gαi1 = biological target: T4, apelinR / human Gαi1 (Homo sapiens, UniProt P35414); assay: ebBRET Gαi1 activation; format: cell-based; settings: HEK293 cells transfected with apelinR, human Gαi1, Rap1GAP-RlucII, rGFP-CAAX; 10 min at 37 °C; mean ± SEM of 5 to 6 independent experiments; read-out: Gαi1 activation log EC50 (converted)
T4 sequence (P35414 1-380): T1 sequence (P35414 1-380)

Row | Compound | cardioprotective effect / cardiac function recovery after ischemia–reperfusion (LVDP, RPP, max dP/dt, min dP/dt; in words) ([1]; 1 μM in perfusion buffer for first 10 min of reperfusion after 30 min ischemia, compared to placebo, one-way ANOVA, Dunnett) | cardiac recovery compared to the placebo treatment (left ventricle contractility, diastolic and systolic function) ([1]; 1 μM, 30 min ischemia, 40 min reperfusion, n = 7) | duration of hypotensive effect post-administration ([2]; 0.5 μmol kg^−1 infusion during 5 min, anesthetized C57BL/6 mice) | reduction of mean arterial pressure (MAP) ([2]; 0.5 μmol kg^−1 infusion during 5 min, anesthetized C57BL/6 mice, n = 3) | hypotensive effect (BP lowering activity, in words) ([2]; 0.5 μmol kg^−1 infusion during 5 min via jugular vein, anesthetized wild-type male C57BL/6 mice, compared to vehicle control) | ERK1/2 phosphorylation (p-ERK1/2/ERK1/2), mean difference versus NMeLeu13A2 ([3]; left ventricular tissue after IR, arbitrary units, p < 0.0001) | ERK1/2 phosphorylation compared with control (in words) ([3]; left ventricular tissue after IR, p < 0.01 (NMeLeu13A2), p < 0.0001 (CbzPEG6–NMeLeu17A2)) | ERK1/2 activation relative to IR (in words) ([3]; p < 0.0001) | Akt phosphorylation (p-Akt/Akt), mean difference relative to control (phospho-Akt (Ser473); left ventricular tissue after IR and 1 μM treatment, arbitrary units relative to aerobic perfusion (control), both p < 0.0001) | Akt phosphorylation (p-Akt/Akt), mean difference versus NMeLeu13A2 (phospho-Akt (Ser473); left ventricular tissue after IR, arbitrary units, p < 0.001) | Akt phosphorylation compared with IR (in words) (phospho-Akt (Ser473); left ventricular tissue after IR, one-way ANOVA, Tukey) | t1/2 in human plasma [4] [h] | EC50 (apelinR / β-arrestin1) [nM] | EC50 (apelinR / human Gαi2) [nM] | EC50 (apelinR / β-arrestin2) [nM] | EC50 (apelinR / human Gαi1) [nM] | half-life in human plasma [4] [h]
1 | CCCC[C@H](NC(=O)[C@@H]1CCCN1C(=O)CNC(=O)[C@H](CCCCN)NC(=O)[C@H](Cc1c[nH]cn1)NC(=O)[C@H](CO)NC(=O)[C@H](CC(C)C)N(C)C(=O)[C@H](CCCNC(=N)N)NC(=O)[C@@H]1CCCN1C(=O)[C@H](CCCNC(=N)N)NC(=O)[C@H](CCC(N)=O)NC(=O)[C@H](CCCNC(=N)N)NC(=O)[C@H](CCCNC(=N)N)NC(=O)[C@H](Cc1ccccc1)NC(=O)[C@H](CCCCN)NC(=O)CCOCCOCCOCCOCCOCCOCCNC(=O)OCc1ccccc1)C(=O)NC(C)(C)C(=O)N[C@@H](Cc1ccc(Br)cc1)C(=O)O [CbzPEG6–NMeLeu17A2] ({Cbz-PEG6}-KFRRQRPR[NMeL]SHKGP[Nle][Aib][Phe(4-Br)]-OH; C-terminus assumed) | significant cardioprotective effect and positive inotropic effect | nearly doubled | more than 30 minutes | approximately 50% | significant hypotensive effect | −1.991 | significantly increased ERK1/2 phosphorylation | significant increase in ERK1/2 activation | −8.857 | −4.018 | robust enhancement | > 18 |  |  |  |  | 
2 | CCCC[C@H](NC(=O)[C@@H]1CCCN1C(=O)CNC(=O)[C@H](CCCCN)NC(=O)[C@H](Cc1c[nH]cn1)NC(=O)[C@H](CO)NC(=O)[C@H](CC(C)C)N(C)C(=O)[C@H](CCCNC(=N)N)NC(=O)[C@@H]1CCCN1C(=O)[C@H](CCCNC(=N)N)NC(=O)[C@@H]1CCC(=O)N1)C(=O)NC(C)(C)C(=O)N[C@@H](Cc1ccc(Br)cc1)C(=O)O [NMeLeu13A2] |  |  |  |  |  |  |  |  |  |  |  |  | 1.23 | 0.0219 | 1.15 | 0.0339 | ~4
